The record followed here is patent publication US20260242360A1, “Novel Compound, and Pharmaceutical Composition for Prevention or Treatment of Cancer or Tumors Comprising Same” (Daewoong Pharmaceutical Co., Ltd., priority 2023, published 2026).

Some results are limits rather than exact numbers.

Common to all, as to assay type: cell-based
For test [1], the system named is transcription factor TEAD. Put plainly: Activity inhibition test of transcription factor TEAD (ONE-Glo luciferase assay, Hippo Pathway TEAD reporter-MCF7 cell line). As to conditions: Homo sapiens; TEAD Reporter-MCF7 cells, 24 hours treatment, luciferase luminescence. The protocol:
The transcription factor TEAD activity of the compounds prepared in Examples was measured by the ONE-Glo™ Luciferase assay (Promega, Catalog #E6110) method using the Hippo Pathway TEAD reporter-MCF7 recombinant cell line (BPS Bioscience, Catalog #60618).
Specifically, the TEAD Reporter-MCF7 cell line contains the firefly luciferase gene whose expression is regulated under the control of TEAD response elements in the MCF7, which is a human breast cancer cell line. In the cell line, a non-phosphorylated YAP/TAZ exists in the nucleus in a non-stressed condition, which continuously induces expression of the luciferase reporter.
TEAD Reporter-MCF7 cells were prepared in 100 μL of cell culture medium (MEM medium, 10% FBS, 1% P/S, 400 μg/mL Geneticin, 1% […], 1 mM NA pyruvate, 10 μg/mL Insulin) in a white clear bottom 96-well microplate. The prepared plate was incubated in a 5% CO2 incubator at 37° C. for 24 hours, and then the previously prepared compounds of Examples were finally treated at concentrations of 0.0005, 0.005, 0.05, 0.5 and 5 μM, which were repeated three times for all treatment solutions. The plates treated with the compounds of Examples were incubated in a 5% CO2 incubator at 37° C. for 24 hours. 100 μL/well of the substrate aqueous solution containing luciferin was added to a white clear-bottom 96 well microplate, thereby initiating an enzyme reaction. The reaction was performed at room temperature for 5 minutes, and the luminescence (integration time 1000 ms) was measured using a Flexstation3 multi-mode microplate reader. In accordance with the instructions for the ONE-Glo™ Luciferase Assay, the luciferase enzyme activity, which represents the activity of the transcription factor TEAD, was measured by a chemiluminescence method, and the inhibitory activity of the compound according to the present disclosure was calculated. The results of each compound were analyzed using Microsoft Excel, and the IC50 values were calculated by GraphPad Prism software.

In another test the test system is NCI-H28 cells. Put plainly: Cell growth inhibition test (CellTiter-Glo), NCI-H28. The settings on record: Homo sapiens, NCI-H28 cell line. The protocol:
(§1) The cell growth for the compounds prepared in Examples was measured by CellTiter-Glo® Luminescednt Cell Viability (Promega, Catalog #G7571) method using NCI-H226 (addexbio), NCI-H28 (Korea Cell Line Bank) cell lines. This evaluation method is a method in which when luciferase enzyme is activated by ATP flowing out from living cells, it reacts with a luciferin substrate, and the enzyme activity at this time is measured to confirm cell viability.
(§2) Specifically, NCI-H226, and NCI-H28 cells were prepared in 100 μL of cell culture medium (RPMI medium, 10% FBS, 1% P/S, 4.5 g/L D-Glucose, 2.383 g/L HEPES Buffer, L-Glutamine, 1.5 g/L Sodium Bicarbonate, 110 mg/L Sodium pyruvate) in a white clear bottom 96-well microplate. The prepared plate was incubated in a 5% CO2 incubator at 37° C. for 24 hours, and then the previously prepared compounds of Examples were finally treated at concentrations of 0.0005, 0.005, 0.05, 0.5 and 5 μM, which was repeated three times for all treatment solutions.
(§3) The plates treated with the compounds of Examples were incubated in a 5% CO2 incubator at 37° C. 100 μL/well of the substrate aqueous solution containing luciferin was added to a white clear-bottom 96 well microplate, thereby initiating an enzyme reaction. The reaction was performed at room temperature in the dark for 10 minutes, and the luminescence was measured using a Flexstation3 multi-mode microplate reader. In accordance with the instructions for the CellTiter-Glo™ Luminescednt Cell Viability, the luciferase enzyme activity, which represents the amount of ATP, was measured by a chemiluminescence method, and the inhibitory activity of the compounds according to the present disclosure was calculated. The results of each compound were analyzed using Microsoft Excel, and the IC50 values were calculated using GraphPad Prism software.

For the next test, the system named is NCI-H226 cells. As to the kind of experiment: Cell growth inhibition test (CellTiter-Glo), NCI-H226. The settings on record: Homo sapiens, NCI-H226 cell line. The protocol:
as §1, §2, §3

Turning to `C=CC(=O)Nc1cc(-c2cn(C)cn2)c2[nH]c(-c3ccc(Cl)cc3)cc2c1` [Example 1, N-(2-(4-chlorophenyl)-7-(1-methyl-1H-imidazol-4-yl)-1H-indol-5-yl)acrylamide], the IC50 in test [1] was 9.4 nM; in the test on NCI-H28 cells it was greater than 5000 nM; in the test on NCI-H226 cells, 21 nM.

Turning to `C=CC(=O)Nc1cc(-c2cn(C)cn2)c2[nH]c(-c3ccc(C(F)(F)F)cc3)cc2c1` [Example 2, N-(7-(1-methyl-1H-imidazol-4-yl)-2-(4-(trifluoromethyl)phenyl)-1H-indol-5-yl)acrylamide], the IC50 in test [1] was found to be 39 nM; in the test on NCI-H28 cells, 4140 nM; with NCI-H226 cells, 65 nM.

For `C=CC(=O)Nc1cc(-c2cn(C)cn2)c2[nH]c(-c3ccc(F)cc3)cc2c1` [Example 3, N-(2-(4-fluorophenyl)-7-(1-methyl-1H-imidazol-4-yl)-1H-indol-5-yl)acrylamide], the IC50 in test [1] was determined as 3.5 nM; in the test on NCI-H28 cells, 1530 nM; in the test with NCI-H226 cells, 2.5 nM.

In the case of `C=CC(=O)Nc1cc(-c2cn(C)cn2)c2[nH]c(-c3ccccc3)cc2c1` [Example 4, N-(7-(1-methyl-1H-imidazol-4-yl)-2-phenyl-1H-indol-5-yl)acrylamide], the IC50 worked out at 30 nM in test [1], 4400 nM in the test on NCI-H28 cells and 10 nM with NCI-H226 cells.

Consider `C=CC(=O)Nc1cc(-c2cn(C)cn2)c2[nH]c(-c3ccc(F)cc3F)cc2c1` [Example 5, N-(2-(2,4-difluorophenyl)-7-(1-methyl-1H-imidazol-4-yl)-1H-indol-5-yl)acrylamide], for which the values for the IC50 (in test [1]; with NCI-H28 cells; with NCI-H226 cells) were 6.4 nM, greater than 5000 nM and 4.2 nM, respectively.

Turning to `C=CC(=O)Nc1cc(-c2cn(C)cn2)c2[nH]c(-c3cc(F)c(F)c(F)c3)cc2c1` [Example 6, N-(7-(1-methyl-1H-imidazol-4-yl)-2-(3,4,5-trifluorophenyl)-1H-indol-5-yl)acrylamide], the IC50 worked out at 5.9 nM in test [1], 4000 nM in the test on NCI-H28 cells and 4.4 nM in the test with NCI-H226 cells.

For the compound `C=CC(=O)Nc1cc(-c2cn(C)cn2)c2[nH]c(-c3ccc(Cl)c(Cl)c3)cc2c1` [Example 8, N-(2-(3,4-dichlorophenyl)-7-(1-methyl-1H-imidazol-4-yl)-1H-indol-5-yl)acrylamide], the results for the IC50 (in test [1]; with NCI-H28 cells; in the test on NCI-H226 cells) were 110 nM, 950 nM and 57 nM, respectively.

Take `C=CC(=O)Nc1cc(-c2cn(C)cn2)c2[nH]c(-c3ccc(F)c(F)c3)cc2c1` [Example 9, N-(2-(3,4-difluorophenyl)-7-(1-methyl-1H-imidazol-4-yl)-1H-indol-5-yl)acrylamide]: the IC50 was 20 nM in test [1], 2950 nM in the test with NCI-H28 cells and 5.3 nM in the test with NCI-H226 cells.

For the compound `C=CC(=O)Nc1cc(-c2cn(C)cn2)c2[nH]c(-c3cccc(Cl)c3)cc2c1` [Example 10, N-(2-(3-chlorophenyl)-7-(1-methyl-1H-imidazol-4-yl)-1H-indol-5-yl)acrylamide], the IC50 in test [1] turned out to be 60 nM; in the test with NCI-H28 cells, 2470 nM; in the test on NCI-H226 cells, 20 nM.

On to `C=CC(=O)Nc1cc(-c2cn(C)cn2)c2[nH]c(-c3ccc(Cl)cc3F)cc2c1` [Example 12, N-(2-(4-chloro-2-fluorophenyl)-7-(1-methyl-1H-imidazol-4-yl)-1H-indol-5-yl)acrylamide], for which the IC50 is 79 nM in test [1], 2800 nM in the test on NCI-H28 cells and 22.5 nM in the test on NCI-H226 cells.

Regarding `C=CC(=O)Nc1cc(-c2cn(C)cn2)c2[nH]c(C3=CCCCC3)cc2c1` [Example 13, N-(2-cyclohexenyl-7-(1-methyl-1H-imidazol-4-yl)-1H-indol-5-yl)acrylamide], the values for the IC50 (in test [1]; with NCI-H28 cells; in the test with NCI-H226 cells) were 46 nM, 3500 nM and 22.3 nM, respectively.

Take `C=CC(=O)Nc1cc(-c2cn(C)cn2)c2[nH]c(-c3ccc(F)c(C)c3)cc2c1` [Example 14, N-(2-(4-fluoro-3-methylphenyl)-7-(1-methyl-1H-imidazol-4-yl)-1H-indol-5-yl)acrylamide]: the IC50 came to 49 nM in test [1], 2300 nM in the test with NCI-H28 cells and 25.1 nM with NCI-H226 cells.

For `Cn1cnc(-c2cc(NS(C)(=O)=O)cc3cc(-c4cccc(C(F)(F)F)c4)[nH]c23)c1` [Example 19, N-(7-(1-methyl-1H-imidazol-4-yl)-2-(3-(trifluoromethyl)phenyl)-1H-indol-5-yl)methanesulfonamide], the IC50 in test [1] was 190 nM; in the test on NCI-H28 cells it was 438 nM; in the test with NCI-H226 cells it was 210 nM.

`Cn1cnc(-c2cc(NS(C)(=O)=O)cc3cc(-c4ccc(Cl)cc4)[nH]c23)c1` [Example 21, N-(2-(4-chlorophenyl)-7-(1-methyl-1H-imidazol-4-yl)-1H-indol-5-yl)methanesulfonamide]: the IC50 is 236 nM in test [1], 2220 nM with NCI-H28 cells and greater than 5000 nM in the test with NCI-H226 cells.

As for `C=CC(=O)Nc1cc(-c2ccn(C)n2)c2[nH]c(-c3ccc(Cl)cc3)cc2c1` [Example 28, N-(2-(4-chlorophenyl)-7-(1-methyl-1H-pyrazol-3-yl)-1H-indol-5-yl)acrylamide], the figures for the IC50 (in test [1]; in the test with NCI-H28 cells; with NCI-H226 cells) were 15 nM, 2300 nM and 8.4 nM, respectively.

Turning to `C=CC(=O)Nc1cc(-c2ccccn2)c2[nH]c(-c3ccc(Cl)c(Cl)c3)cc2c1` [Example 30, N-(2-(3,4-dichlorophenyl)-7-(pyridin-2-yl)-1H-indol-5-yl)acrylamide], the IC50 in test [1] was 126 nM; in the test with NCI-H28 cells it was 553 nM; with NCI-H226 cells, 339 nM.

Consider `C=CC(=O)Nc1cc(-c2ccccn2)c2[nH]c(-c3ccc(F)cc3)cc2c1` [Example 31, N-(2-(4-fluorophenyl)-7-(pyridin-2-yl)-1H-indol-5-yl)acrylamide], for which the IC50 in test [1] was found to be 30 nM; in the test on NCI-H28 cells it was 1770 nM; in the test on NCI-H226 cells it was 12 nM.

As to `C=CC(=O)Nc1cc(-c2ccn(C)n2)c2[nH]c(-c3ccc(F)cc3)cc2c1` [Example 32, N-(2-(4-fluorophenyl)-7-(1-methyl-1H-pyrazol-3-yl)-1H-indol-5-yl)acrylamide], the IC50 in test [1] is 23 nM; in the test on NCI-H28 cells, 1360 nM; in the test with NCI-H226 cells it was 7.6 nM.

In the case of `C=CC(=O)Nc1cc(-c2ccn(C)n2)c2[nH]c(-c3ccc(F)cc3F)cc2c1` [Example 33, N-(2-(2,4-difluorophenyl)-7-(1-methyl-1H-pyrazol-3-yl)-1H-indol-5-yl)acrylamide], the figures for the IC50 (in test [1]; in the test on NCI-H28 cells; in the test on NCI-H226 cells) were 51 nM, 4910 nM and 24.3 nM, respectively.

Take `Cn1cnc(-c2cc(C(=O)O)cc3cc(-c4ccc(F)cc4)[nH]c23)c1` [Example 35, 2-(4-fluorophenyl)-7-(1-methyl-1H-imidazol-4-yl)-1H-indole-5-carboxylic acid]: the IC50 in test [1] was 100 nM; in the test with NCI-H28 cells, greater than 5000 nM; in the test on NCI-H226 cells, 137 nM.

On to `Cn1cnc(-c2cc(C(=O)O)cc3cc(-c4ccc(Cl)cc4)[nH]c23)c1` [Example 37, 2-(4-chlorophenyl)-7-(1-methyl-1H-imidazol-4-yl)-1H-indole-5-carboxylic acid], for which the IC50 in test [1] was 26 nM; in the test with NCI-H28 cells, 759 nM; in the test with NCI-H226 cells, 134 nM.

In the case of `Cn1cnc(-c2cc(C(=O)O)cc3cc(-c4ccc(Cl)c(F)c4)[nH]c23)c1` [Example 39, 2-(4-chloro-3-fluorophenyl)-7-(1-methyl-1H-imidazol-4-yl)-1H-indole-5-carboxylic acid], the figures for the IC50 (in test [1]; with NCI-H28 cells; in the test on NCI-H226 cells) were 36 nM, greater than 5000 nM and 21.9 nM, respectively.
